Source: ChEMBL document CHEMBL2331125, “Anthraquinone Derivatives as Potent Inhibitors of c-Met Kinase and the Extracellular Signaling Pathway” (ACS Med Chem Lett, 2013)
Active and inactive are the calls of the source. No cut-off for these calls is given here.

Each compound was assayed against Hepatocyte growth factor receptor (Mus musculus) (UniProt P16056) (assay: Inhibition of TPR-Met phosphorylation in mouse BAF3 cells at 10 uM after 2 hrs by Western blot analysis).
Format: cell-based

Chain of Hepatocyte growth factor receptor (Mus musculus) (P16056 whole entry): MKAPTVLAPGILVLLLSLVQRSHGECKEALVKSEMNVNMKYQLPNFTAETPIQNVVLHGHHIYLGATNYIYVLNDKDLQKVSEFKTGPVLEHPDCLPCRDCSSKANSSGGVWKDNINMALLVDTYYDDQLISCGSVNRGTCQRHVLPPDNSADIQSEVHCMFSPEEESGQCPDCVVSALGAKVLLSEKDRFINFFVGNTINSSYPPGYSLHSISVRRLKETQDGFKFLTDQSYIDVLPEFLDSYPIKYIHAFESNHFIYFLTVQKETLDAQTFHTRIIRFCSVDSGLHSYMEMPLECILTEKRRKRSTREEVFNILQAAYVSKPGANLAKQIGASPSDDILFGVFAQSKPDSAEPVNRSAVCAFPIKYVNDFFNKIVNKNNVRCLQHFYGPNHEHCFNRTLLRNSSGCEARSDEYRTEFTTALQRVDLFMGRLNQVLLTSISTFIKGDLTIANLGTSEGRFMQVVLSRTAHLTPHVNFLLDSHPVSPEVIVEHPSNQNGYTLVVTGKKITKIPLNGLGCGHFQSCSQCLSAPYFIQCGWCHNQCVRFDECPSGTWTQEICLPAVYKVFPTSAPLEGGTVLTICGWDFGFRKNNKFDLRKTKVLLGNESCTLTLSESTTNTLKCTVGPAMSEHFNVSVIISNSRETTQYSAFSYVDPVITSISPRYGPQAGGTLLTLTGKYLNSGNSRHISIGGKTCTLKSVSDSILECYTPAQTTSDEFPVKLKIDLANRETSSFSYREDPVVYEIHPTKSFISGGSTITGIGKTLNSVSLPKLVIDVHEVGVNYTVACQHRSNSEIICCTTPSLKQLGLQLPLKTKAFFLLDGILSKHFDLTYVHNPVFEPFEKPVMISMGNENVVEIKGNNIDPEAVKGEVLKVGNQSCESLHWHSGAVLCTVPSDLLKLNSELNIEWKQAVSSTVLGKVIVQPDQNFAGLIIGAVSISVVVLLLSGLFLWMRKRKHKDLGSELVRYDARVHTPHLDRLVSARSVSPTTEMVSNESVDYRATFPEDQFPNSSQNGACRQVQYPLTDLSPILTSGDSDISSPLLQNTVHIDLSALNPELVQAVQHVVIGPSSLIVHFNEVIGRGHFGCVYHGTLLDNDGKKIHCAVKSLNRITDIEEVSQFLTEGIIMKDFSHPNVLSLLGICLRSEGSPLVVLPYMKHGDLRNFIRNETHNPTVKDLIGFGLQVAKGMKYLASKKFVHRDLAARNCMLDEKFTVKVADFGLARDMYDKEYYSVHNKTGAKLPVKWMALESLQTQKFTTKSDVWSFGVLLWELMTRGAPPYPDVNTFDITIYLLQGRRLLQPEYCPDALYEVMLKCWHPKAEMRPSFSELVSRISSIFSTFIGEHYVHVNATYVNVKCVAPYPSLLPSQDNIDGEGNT

SMILES	inhibition
CC(=O)Nc1ccc(-c2ccc(Nc3cc(S(=O)(=O)O)c(N)c4c3C(=O)c3ccccc3C4=O)cc2)cc1	inactive
Cc1cc(-c2ccc(Nc3cc(S(=O)(=O)O)c(N)c4c3C(=O)c3ccccc3C4=O)c(C)c2)ccc1N	inactive
Nc1c(S(=O)(=O)O)cc(Nc2ccc(Cc3ccc(Nc4cc(S(=O)(=O)O)c(N)c5c4C(=O)c4ccccc4C5=O)cc3)cc2)c2c1C(=O)c1ccccc1C2=O	inactive
Nc1c(S(=O)(=O)O)cc(Nc2ccc(-c3ccc(Nc4cc(S(=O)(=O)O)c(N)c5c4C(=O)c4ccccc4C5=O)cc3)cc2)c2c1C(=O)c1ccccc1C2=O	inactive
Cc1cc(-c2ccc(Nc3cc(S(=O)(=O)O)c(N)c4c3C(=O)c3ccccc3C4=O)c(C)c2)ccc1Nc1cc(S(=O)(=O)O)c(N)c2c1C(=O)c1ccccc1C2=O	inactive
Nc1ccc(-c2ccc(Nc3cc(S(=O)(=O)O)c(N)c4c3C(=O)c3ccccc3C4=O)cc2)cc1	inactive
Nc1c(S(=O)(=O)O)cc(Nc2ccc(-c3ccc(Nc4ncccn4)cc3)cc2)c2c1C(=O)c1ccccc1C2=O	inactive
Cc1cc(Nc2cc(S(=O)(=O)O)c(N)c3c2C(=O)c2ccccc2C3=O)ccc1-c1ccc(Nc2cc(S(=O)(=O)O)c(N)c3c2C(=O)c2ccccc2C3=O)cc1C	inactive
